We go through four compounds from US6773891B2 (priority 1998, dated 2004).

Like-named read-outs stand apart in the source and are kept apart here.

In data set [1] the test system is rats. Put plainly: Locomotor effects of nicotine. The data set is classed as in vivo. Conditions: subcutaneous injection. From the text:
This experiment used was designed to determine whether passive immunization could prevent an immediate CNS mediated action of nicotine. The rat model used in this experiment was developed by Dr. David Malin and is described in Malin et al. Nicotine-specific IgG reduced distribution to brain and attenuates its behavioral and cardiovascular effects in rats, submitted to the Fifth Annual Meeting of the Society for Research on Nicotine and Tobacco, San Diego, Calif., Mar. 5-7, 1999; To establish a baseline, the effect of a subcutaneous injection of 0.8 mg/kg of nicotine tartrate on locomotor activity level of rats was measured. The 0.8 mg/kg dose of nicotine tartrate is the highest dose that could be used without inducing locomotor abnormalities.
There was an increase in activity level after nicotine injection in rats that were not pre-treated with anti-[3′ AMNic-Suc-rEPA], and in rats that were pretreated with 50 mg of normal rabbit serum IgG. See FIG. 6A, right bar and FIG. 6B, left bar. This effect was suppressed by pretreating the animals with 50 mg of anti-[3′ AMNic-Suc-rEPA] immune IgG (FIG. 6B, right bar).

In data set [2] the test system is rabbits. The note with it: i.m., dose 100 μg, arithmetic mean six to seven weeks after third injection. On the procedure:
(§1) Antibodies generated against 3′ AMNic vaccine were evaluated using a 3′ AMNic-pGlu ELISA as follows: Dynatech Immulon 4 microtiter plates (Chantilly, Va.) were coated 100 μL/well with 10 ng/mL 3′ AMNic-pGlu in 0.1 M bicarbonate buffer, pH 9.6 and allowed to incubate overnight (ON) at room temperature (RT). The plates were then aspirated and blocked with 1% BSA in PBS for one hour at RT. […] The plates were washed ([…], 0.1% BRIJ) five times and diluted samples and reference serum were loaded. The reference and samples were 2-fold diluted down the plates for a final volume of 100 μL/well and plates are incubated for 1 hour at 37° C. The plates were then washed again and loaded 100 μL/well with peroxidase-conjugated anti-species IgG, Fc specific (Jackson, West Grove, Pa.) diluted in PBB and incubated at 37° C. for one hour. The plates were washed and incubated 10 minutes at RT with 100 μl/well 3,3′,5,5′-tetramethylbenzidine (TMB) substrate (KPL, Gaithersburg, Md.) diluted 1:1 with H2O2 (supplied with TMB reagent kit). The reaction is stopped with the addition of 100 μL/well 1 M phosphoric acid and read at 450 nm on an MR4000 microtiter plate reader (Dynatech). Samples are quantified in relation to the reference using parallel line analysis.

Data set [3] deals with rats. The note with it: for Titer, 1 injection / Titer, 2 injections / Titer, 3 injections: i.p.; for Titer, 1 injection: one week after 1st injection; for Titer, 2 injections: one week after 2nd injection; for Titer, 3 injections: one week after 3rd injection. On the procedure: Rats were immunized intraperitoneally with the vaccines three times. Injections were given two weeks apart with test bleeds performed one week following the first and second injection. The rats were then exsanguinated one week after the third injection. Freund's complete adjuvant was used for the first injection, and incomplete Freund's adjuvant for the subsequent injections. Serum samples were evaluated in an ELISA assay.
as §1

Data set [4] relates to mice. Conditions: for Titer, 1 injection / Titer, 2 injections / Titer, 3 injections: s.c.; for Titer, 2 injections: one week after 2nd injection; for Titer, 3 injections: one week after 3rd injection.
Procedure: Animals were immunized using standard protocols. In mice, three subcutaneous injections of vaccine were administered, two weeks apart, with test bleeds performed one week following the first and second injection, and exsanguination occurring one week following the third injection. Serum samples were evaluated in an ELISA assay, described in Example 10. The ELISA assay utilized 3′ AMNic-pGlu bound to microtiter plates.
Antibodies generated against 3′ AMNic vaccine were evaluated using a 3′ AMNic-pGlu ELISA as follows: Dynatech Immulon 4 microtiter plates (Chantilly, Va.) were coated 100 μL/well with 10 ng/mL 3′ AMNic-pGlu in 0.1 M bicarbonate buffer, pH 9.6 and allowed to incubate overnight (ON) at room temperature (RT). The plates were then aspirated and blocked with 1% BSA in PBS for one hour at RT. […] The plates were washed (9% NaCl, 0.1% BRIJ) five times and diluted samples and reference serum were loaded. The reference and samples were 2-fold diluted down the plates for a final volume of 100 μL/well and plates are incubated for 1 hour at 37° C. The plates were then washed again and loaded 100 μL/well with peroxidase-conjugated anti-species IgG, Fc specific (Jackson, West Grove, Pa.) diluted in PBB and incubated at 37° C. for one hour. The plates were washed and incubated 10 minutes at RT with 100 μl/well 3,3′,5,5′-tetramethylbenzidine (TMB) substrate (KPL, Gaithersburg, Md.) diluted 1:1 with H2O2 (supplied with TMB reagent kit). The reaction is stopped with the addition of 100 μL/well 1 M phosphoric acid and read at 450 nm on an MR4000 microtiter plate reader (Dynatech). Samples are quantified in relation to the reference using parallel line analysis.
The test system of data set [5] is rats. The note with it: three i.p. injections of 25 μg vaccine, 3 and 10 min after 0.03 mg/kg nicotine infusion over 10 seconds.
Procedure: To evaluate the present immunotherapy, an animal model has been developed to simulate the rapid absorption of nicotine from two cigarettes in humans. […] In this model, rats were administered 0.03 mg/kg of nicotine by i.v. infusion over 10 sec., simulating the rapid absorption of nicotine from the lungs in human smokers. Blood samples were taken at 3 and 10 min after nicotine injection for measurement of plasma nicotine.
The conditions of data set [6]: 0.5 mg/mL in 1 mL glass vials.
Procedure: A stability study of the nicotine-carrier conjugate of example 4 was carried out. The study used the vaccine vialed in 1 mL glass vials at a concentration of 0.5 mg/mL and the stability of the vialed vaccine was tested at three different temperatures: −70° C., 2 to 8° C. and room temperature.
The stability study consisted of monitoring and assaying the conjugate vaccine using the following:
1.) Visual observation to look for any particulates formed (turbidity, precipitation).
2.) Checking for any significant pH change.
3.) Size exclusion chromatography profile in combination with UV absorption at 260 and 280 nm to determine if the ratio of nicotine incorporation changed.
4.) Reversed phase chromatography to check for any carrier protein degradation.
5.) SDS PAGE with silver staining looking for any proteolytic cleavage of the conjugated protein.
The conditions of data set [7]: cited from earlier work.

As for `CN1CCCC1c1cccnc1.O=C(O)C(O)C(O)C(=O)O` (stereo not drawn) [nicotine tartrate], the “Highest dose without inducing locomotor abnormalities” value in data set [1] is given as 0.8 mg/kg.
In the case of “3-aminomethyl-(−)-nicotine-polyglutamic acid-ADH-rEPA [3′AMNic-pGlu-ADH-rEPA]”, the Titer in data set [2] is 147,000. For the same compound, the Booster response result in data set [3] and in data set [4] was “showed the ability to induce the booster response” in each case. For the same compound, the “Titer, 1 injection” value is recorded as 0 in data set [3] (dose 100 μg (dry weight of lyophilized conjugate)); 2 in data set [4] (dose 2 μg (dry weight of lyophilized conjugate), one week after 1st injection); 2 in data set [4] (dose 10 μg (dry weight), one week after 1st injection); 11 in data set [4] (dose 30 μg (dry weight), one week after 1st injection). Also, the “Titer, 2 injections” value is 1,067 in data set [3] (dose 100 μg (dry weight)), 739 in data set [4] (dose 2 μg (dry weight)), 2,490 in data set [4] (dose 10 μg (dry weight)) and 2,822 in data set [4] (dose 30 μg (dry weight)). Moreover, the “Titer, 3 injections” value in data set [3] (dose 100 μg (dry weight)) was 3,752; in data set [4] (dose 2 μg (dry weight)), 6,586; in data set [4] (dose 10 μg (dry weight)), 9,573; in data set [4] (dose 30 μg (dry weight)), 8,195.
For “3′aminomethyl-(−)-nicotine-succinyl-rEPA [3′AMNic-Suc-rEPA]”, in data set [2], the Titer is on record as 132,000. In addition, the “Nicotine in plasma versus non-immunized controls” value in data set [5] is recorded as “increased levels of nicotine in plasma”. Besides, the Booster response result in data set [3] and in data set [4] was “showed the ability to induce the booster response” in each case. Also, the “Titer, 1 injection” value in data set [3] (Freund's adjuvant, dose 15 μg (protein assay)) stood at 18; in data set [3] (dose 25 μg (protein assay)), 4; in data set [3] (dose 50 μg (protein assay)), 353; in data set [4] (dose 1 μg (protein assay), arithmetic mean one week after 1st injection), 0; in data set [4] (dose 5 μg (protein assay), one week after 1st injection), 1; in data set [4] (dose 15 μg (protein assay), one week after 1st injection), 3. Also, the “Titer, 2 injections” value was 7,942 in data set [3] (dose 15 μg (protein assay)); 1,446 in data set [3] (dose 25 μg (protein assay)); 7,211 in data set [3] (dose 50 μg (protein assay)); 36 in data set [4] (dose 1 μg (protein assay)); 884 in data set [4] (dose 5 μg (protein assay)); 2,476 in data set [4] (dose 15 μg (protein assay)). Besides, the “Titer, 3 injections” value in data set [3] (dose 15 μg (protein assay)) was 9,947; in data set [3] (dose 25 μg (protein assay)) it was 5,991; in data set [3] (dose 50 μg (protein assay)), 8,996; in data set [4] (dose 1 μg (protein assay)), 4,280; in data set [4] (dose 5 μg (protein assay)) it was 10,727; in data set [4] (dose 15 μg (protein assay)), 14,160. Moreover, the “Stability of the conjugate” value in data set [6] (−70° C. and 2 to 8° C.) was “stability of the conjugate for six months”; in data set [6] (−70° C., 2 to 80° C. and room temperature) it was “stability of the conjugate for six months”.
With `CN1CCC[C@H]1c1cccnc1` [nicotine, (S)-(−)-nicotine], the “Time to peak levels of nicotine in the blood” value in data set [7] (after smoking a cigarette) was 10 to 15 min. Moreover, the “Arterial versus venous nicotine concentrations” value in data set [7] (humans, smoking a cigarette) is 10 fold.
